Assay results: patent US11072567B2, “Urea-based blend composition and method for the manufacture thereof” (YARA INTERNATIONAL ASA, priority 2015, dated 2021)
Values belong to the compound of their own block, whether it stands above or below them.

Assays:
[1] = Stability of nBTPT on urea blended with DAP, bagged storage at 20° C., HPLC analysis of nBTPT content; format: physicochemical; conditions: 2500 ppm added; 900 ppm nBTPT as Agrotain Ultra on urea blended with DAP 1:1; 14 days bagged storage at 20° C.
Method: (§1) For lab scale experiments, nBTPT was applied onto urea by adding 1.2 kg of urea-based compound to a lab scale drum. In a next step, the nBTPT material was slowly added. A residence time of 10 minutes was applied and the rotating speed of the drum was consequently the same in each experiment. In case a moisture repellent coating was added, a nebulizer was used and depending on the order of addition, the moisture repellent coating was added before or after addition of the nBTPT material. Before use, the moisture repellent coating was preheated to 80° C. Larger scale experiments with amounts up to 40 kg of fertilizer material were performed in a concrete mixer.
(§2) In a next step, one or more reactive alkaline or alkaline-forming inorganic or organic compounds that is able to interact with the one or more components selected from the group of nitrates, phosphates, sulphates and chlorides was added;
(§3) In a next step, a particulate material, comprising one or more components selected from the group of nitrates, phosphates, sulphates and chlorides was added;
(§4) All the components were mixed thoroughly.
Optionally, a coating to one or more of the particulate components that is able to increase at least the anti-caking and/or water repellent properties of said urea-based blend composition was added. Importantly, all the steps can be interchanged or the steps can be performed simultaneously.
(§5) The samples were stored under several conditions, dependent on the type of samples: • 20° C. closed plastic container with head space (Climate chamber, 80% relative humidity) • Bagged at room temperature (20-25° C.) or in nissenhut (an unconditioned bulk hall) • Open to air in nissenhut • Cylinder test in nissenhut • Open pile in nissenhut
(§6) HPLC analysis of nBTPT is done as described in the procedure CEN 15688-2007.
(§7) In practice, the urea-based compound treated with nBTPT was picked and separated manually from the particulate material, comprising one or more components selected from the group of nitrates, phosphates, sulphates and chlorides, and then subsequently dissolved in water for HPLC analysis.
Coating: Moisture repellent (MR) coating was made according to EP 0768993 A1 (Norsk Hydro ASA) by mixing about 28 weight % of wax, about 68 weight % of oil and about 4 weight % of a resin, applied in an amount of about 0.1-0.5% weight % to the fertilizer. It will be referred herein as NH coating.

[2] = Stability of nBTPT in/on urea:AS blend, bagged versus open to air storage in nissenhut; format: physicochemical; conditions: 500 ppm nBTPT in/on urea blended with granular AS 1:1; 35 days in nissenhut
Method: FIG. 8. Stability of different nBTPT formulations (500 ppm) in and on urea in a blend with granular AS: bagged versus open to air storage-% recovery of nBTPT after 35 days of storage in nissenhut (day/night cycle 16-42° C./27-77% relative humidity). • A=[500 ppm nBTPT powder in urea]+AS 1:1 • B=[500 ppm nBTPT powder on urea]+AS 1:1 • C=[500 ppm nBTPT as Agrotain® Ultra in urea]+AS 1:1 • D=[500 ppm nBTPT as Agrotain® Ultra on urea]+AS 1:1
as §5
(§8) Typically, a day/night cycle is generated in the nissenhut, with temperature fluctuations between 0 to 42° C. and fluctuations of relative humidity between 20 and 90%, which can be compared with real life storage in silos.
as §6, §7

[3] = Stability of nBTPT in/on urea blends, storage open to air in jars in nissenhut, HPLC analysis of nBTPT content; format: physicochemical; conditions: for stability of nBTPT (degradation): 35 days open to air in jars in nissenhut; for effect of addition on the stability of nBTPT: 2650 ppm added, 14 days open to air in jars at nissenhut
Method: nBTPT was mixed in urea in the following way: nBTPT was added to urea melt and subsequently this mixture was granulated in a fluidized bed granulator.
as §1, §2, §3, §4, §5, §8, §6, §7

[4] = format: physicochemical
Excerpt: With regard to the activity of the reactive alkaline or alkaline-forming inorganic or organic compounds, without being bound by theory, it is hypothesised that the reactive alkaline or alkaline-forming inorganic or organic compound neutralises the released phosphoric acid which is formed during decomposition of the urease inhibitor of the type phosphoric triamide in view of the fact that the decomposition of the urease inhibitor of the type phosphoric triamide is acid-catalysed. As such, the decomposition of the urease inhibitor of the type phosphoric triamide is slowed down. Furthermore, the stabilizer has the ability to immobilize the nitrates, phosphates, sulphates and chlorides and/or to convert the nitrates, phosphates, sulphates and chlorides into a form which is less reactive with the urease inhibitor of the type phosphoric triamide. For example, calcium oxide may react with ammonium sulphate in the presence of water, which is always present in small amounts in urea, to form calcium sulphate, which is nearly insoluble in an aqueous environment, such as a soil.

Compound: [O]=[Zn] [ZnO, zinc oxide]
- effect of addition on the stability of nBTPT [1]: beneficial effect

- effect of addition on the stability of nBTPT [1]: beneficial effect
Compound: OCCNCCO [diethanolamine]

Compound: CCCCNP(N)(N)=S [nBTPT, N-(n-butyl) thiophosphoric triamide]
- effect of bagged storage versus open to air storage on stability of nBTPT [2]: beneficial effect of bagged storage
- stability of nBTPT (degradation) ([3]; liquid nBTPT formulations in and on urea (500 ppm) blended with granular AS 1:1, 16-42° C./27-77% relative humidity): degrades very fast
- stability of nBTPT (degradation) ([3]; nBTPT formulations in and on urea (500 ppm) blended with DAP and KCl, triple 19 ratio): degrades very dramatically
- stability of nBTPT (degradation) ([3]; solid nBTPT in and on urea (500 ppm) blended with DAP 1:1): degrades very fast
- stability of nBTPT (degradation) ([3]; solid nBTPT in and on urea (500 ppm) blended with KCl 1:1): degrades very fast

Compound: [O]=[Ca] [CaO, calcium oxide]
- effect of addition on the stability of nBTPT ([3]; 500 ppm nBTPT powder in or on urea blended with DAP and KCl triple 19): beneficial effect
- effect of addition on the stability of nBTPT ([3]; 500 ppm nBTPT powder in or on urea blended with granular AS 1:1): beneficial effect
- effect of addition on the stability of nBTPT [1]: beneficial effect

- effect of addition on the stability of nBTPT [1]: beneficial effect
Compound: CCN(CC)CC [triethylamine]

Compound: O=C([O-])[O-].[Ca+2] [CaCO3, calcium carbonate]
- effect of addition on the stability of nBTPT [1]: beneficial effect

Compound: [O]=[Mg] [MgO, magnesium oxide]
- effect of addition on the stability of nBTPT [1]: beneficial effect

- stabilizing effect on nBTPT [4]: no stabilizing effect
Compound: talc
